According to patent publication US20080161232A1, “C5a Receptor Antagonist” (JERINI AG, priority 2005, published 2008):
pIC50: −log10 of the molar value. Positions of bridges follow the written chain, without caps; N, C: chain ends. Non-standard residues stand in square brackets, D forms with d. Residues, ends and D or L forms follow the SMILES beside them. Phe(3-Cl) = N[C@@H](Cc1cccc(Cl)c1)C(=O)O; Phe(3-OMe) = COc1cccc(C[C@H](N)C(=O)O)c1; Phe(3-F) = N[C@@H](Cc1cccc(F)c1)C(=O)O; Phe(4-F) = N[C@@H](Cc1ccc(F)cc1)C(=O)O; dPhe(2-Me) = Cc1ccccc1C[C@@H](N)C(=O)O; Phe(2-F) = N[C@@H](Cc1ccccc1F)C(=O)O; Bta = N[C@@H](Cc1csc2ccccc12)C(=O)O; cisHyp = O=C(O)[C@@H]1C[C@H](O)CN1; d(hCha) = N[C@H](CCC1CCCCC1)C(=O)O; Hyp = O=C(O)[C@@H]1C[C@@H](O)CN1; NMeF = CN[C@@H](Cc1ccccc1)C(=O)O; d(hLeu) = CC(C)CC[C@@H](N)C(=O)O; 2Thi = N[C@@H](Cc1cccs1)C(=O)O; Cit = NC(=O)NCCC[C@H](N)C(=O)O; dCha = N[C@H](CC1CCCCC1)C(=O)O; dChg = N[C@@H](C(=O)O)C1CCCCC1; Nle = CCCC[C@H](N)C(=O)O; Orn = NCCC[C@H](N)C(=O)O; Aze = O=C(O)[C@@H]1CCN1; NBuGly = CCCCNCC(=O)O

target: T1, human C5aR(CD88) (Homo sapiens, UniProt P21730); assay: Determination of the IC50 value in an enzyme release assay (functional assay, antagonistic activity); type: cell-based; settings: antagonistic activity; IC50 group in enzyme release assay, RBL cells expressing human C5aR(CD88); read-out: activity (group)
T1 construct: expressed in transfected cells; host or cells: rat basophilic leukemia cells (RBL)
T1 sequence (P21730 1-350): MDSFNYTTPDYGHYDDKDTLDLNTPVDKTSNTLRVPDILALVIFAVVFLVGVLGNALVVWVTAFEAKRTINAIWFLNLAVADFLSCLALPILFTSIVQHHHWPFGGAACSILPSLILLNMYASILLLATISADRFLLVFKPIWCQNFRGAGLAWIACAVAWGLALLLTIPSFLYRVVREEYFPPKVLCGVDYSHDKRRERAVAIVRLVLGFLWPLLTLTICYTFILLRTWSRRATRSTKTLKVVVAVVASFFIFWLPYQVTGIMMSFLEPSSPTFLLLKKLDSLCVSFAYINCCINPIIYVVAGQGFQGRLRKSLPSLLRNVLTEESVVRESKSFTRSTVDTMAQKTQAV

pIC50 | Structure (SMILES)
7.30 to 7.70 | CC(=O)N[C@@H](Cc1ccccc1)C(=O)N[C@H]1CCCNC(=O)[C@H](Cc2ccc(O)cc2)NC(=O)[C@H](Cc2c[nH]c3ccccc23)NC(=O)[C@@H](CC2CCCCC2)NC(=O)[C@@H]2CCCN2C1=O [Compound 146, Ac-Phe-[Orn-Pro-cha-Trp-Tyr]] (Ac-F[Orn]P[dCha]WY; lactam 2-C)
7.70 to 8.00 | CCCC[C@@H]1NC(=O)[C@H](Cc2c[nH]c3ccccc23)NC(=O)[C@@H](Cc2ccccc2C)NC(=O)[C@@H]2CCCN2C(=O)[C@@H](NC(=O)[C@H](Cc2ccccc2)NC(C)=O)CCCNC1=O [Compound 147, Ac-Phe-[Orn-Pro-omf-Trp-Nle]] (Ac-F[Orn]P[dPhe(2-Me)]W[Nle]; lactam 2-C)
5.70 to 6.70 | CCCCN(CC(=O)N1CCC[C@H]1C(=O)N[C@H](CC1CCCCC1)C(=O)N[C@@H](Cc1c[nH]c2ccccc12)C(=O)N[C@@H](Cc1ccccc1)C(N)=O)C(=O)[C@H](Cc1ccccc1)NC(C)=O [Compound 148, Ac-Phe-N(nBu)-CH2—CO-Pro-cha-Trp-Phe-NH2] (Ac-F[NBuGly]P[dCha]WF-NH2)
7.30 to 7.70 | CC(=O)N[C@@H](C)C(=O)N[C@@H](Cc1ccccc1)C(=O)N[C@@H](CCCN)C(=O)N1CC[C@H]1C(=O)N[C@H](CC1CCCCC1)C(=O)N[C@@H](Cc1csc2ccccc12)C(=O)N[C@@H](Cc1ccccc1)C(N)=O [Compound 151, Ac-Ala-Phe-Orn-Aze-cha-Bta-Phe-NH2] (Ac-AF[Orn][Aze][dCha][Bta]F-NH2)
7.30 to 7.70 | CC(=O)N[C@@H](CCCNC(N)=O)C(=O)N[C@@H](Cc1ccccc1)C(=O)N[C@@H](CCCN)C(=O)N1CC[C@H]1C(=O)N[C@H](CC1CCCCC1)C(=O)N[C@@H](Cc1csc2ccccc12)C(=O)N[C@@H](Cc1ccccc1)C(N)=O [Compound 153, Ac-Cit-Phe-Orn-Aze-cha-Bta-Phe-NH2] (Ac-[Cit]F[Orn][Aze][dCha][Bta]F-NH2)
7.70 to 8.00 | CC(=O)NCC(=O)N[C@@H](Cc1ccccc1)C(=O)N[C@@H](CCCN)C(=O)N1CC[C@H]1C(=O)N[C@H](CC1CCCCC1)C(=O)N[C@@H](Cc1csc2ccccc12)C(=O)N[C@@H](Cc1ccccc1)C(N)=O [Compound 154, Ac-Gly-Phe-Orn-Aze-cha-Bta-Phe-NH2] (Ac-GF[Orn][Aze][dCha][Bta]F-NH2)
6.70 to 7.30 | CC(=O)NCC(=O)N[C@@H](Cc1ccccc1)C(=O)N[C@@H](CCCN)C(=O)N1CC[C@H]1C(=O)N[C@@H](C(=O)N[C@@H](Cc1csc2ccccc12)C(=O)N[C@@H](Cc1ccccc1)C(N)=O)C1CCCCC1 [Compound 155, Ac-Gly-Phe-Orn-Aze-chg-Bta-Phe-NH2] (Ac-GF[Orn][Aze][dChg][Bta]F-NH2)
6.70 to 7.30 | CC(=O)NCC(=O)N[C@@H](Cc1ccccc1)C(=O)N[C@@H](CCCN)C(=O)N1CC[C@H]1C(=O)N[C@H](CCC1CCCCC1)C(=O)N[C@@H](Cc1csc2ccccc12)C(=O)N[C@@H](Cc1ccccc1)C(N)=O [Compound 156, Ac-Gly-Phe-Orn-Aze-hch-Bta-Phe-NH2] (Ac-GF[Orn][Aze][d(hCha)][Bta]F-NH2)
7.30 to 7.70 | CC(=O)NCC(=O)N[C@@H](Cc1cccs1)C(=O)N[C@@H](CCCN)C(=O)N1CC[C@H]1C(=O)N[C@H](CC1CCCCC1)C(=O)N[C@@H](Cc1csc2ccccc12)C(=O)N[C@@H](Cc1ccccc1)C(N)=O [Compound 157, Ac-Gly-Thi-Orn-Aze-cha-Bta-Phe-NH2] (Ac-G[2Thi][Orn][Aze][dCha][Bta]F-NH2)
7.30 to 7.70 | CC(=O)N1C[C@H](O)C[C@H]1C(=O)N[C@@H](Cc1ccccc1)C(=O)N[C@@H](CCCN)C(=O)N1CC[C@H]1C(=O)N[C@H](CC1CCCCC1)C(=O)N[C@@H](Cc1csc2ccccc12)C(=O)N[C@@H](Cc1ccccc1)C(N)=O [Compound 159, Ac-Hyp-Phe-Orn-Aze-cha-Bta-Phe-NH2] (Ac-[Hyp]F[Orn][Aze][dCha][Bta]F-NH2)
7.30 to 7.70 | CC(=O)N[C@@H](CCCCN)C(=O)N[C@@H](Cc1ccccc1)C(=O)N[C@@H](CCCN)C(=O)N1CC[C@H]1C(=O)N[C@H](CC1CCCCC1)C(=O)N[C@@H](Cc1csc2ccccc12)C(=O)N[C@@H](Cc1ccccc1)C(N)=O [Compound 160, Ac-Lys-Phe-Orn-Aze-cha-Bta-Phe-NH2] (Ac-KF[Orn][Aze][dCha][Bta]F-NH2)
6.70 to 7.30 | CC(=O)N[C@@H](Cc1cccc(F)c1)C(=O)N[C@@H](CCCN)C(=O)N1CCC[C@H]1C(=O)N[C@H](CCC(C)C)C(=O)N[C@@H](Cc1cccc(Cl)c1)C(=O)N[C@@H](Cc1cccc(F)c1)C(N)=O [Compound 163, Ac-Mff-Orn-Pro-hle-Mcf-Mff-NH2] (Ac-[Phe(3-F)][Orn]P[d(hLeu)][Phe(3-Cl)][Phe(3-F)]-NH2)
6.70 to 7.30 | COc1cccc(C[C@H](NC(C)=O)C(=O)N[C@@H](CCCN)C(=O)N2CCC[C@H]2C(=O)N[C@H](CCC(C)C)C(=O)N[C@@H](Cc2ccc(F)cc2)C(=O)N[C@@H](Cc2ccccc2)C(N)=O)c1 [Compound 164, Ac-Mmy-Orn-Pro-hle-Pff-Phe-NH2] (Ac-[Phe(3-OMe)][Orn]P[d(hLeu)][Phe(4-F)]F-NH2)
6.70 to 7.30 | CC(=O)N[C@@H](CCCN)C(=O)N[C@@H](Cc1ccccc1)C(=O)N[C@@H](CCCN)C(=O)N1CC[C@H]1C(=O)N[C@H](CC1CCCCC1)C(=O)N[C@@H](Cc1csc2ccccc12)C(=O)N[C@@H](Cc1ccccc1)C(N)=O [Compound 168, Ac-Orn-Phe-Orn-Aze-cha-Bta-Phe-NH2] (Ac-[Orn]F[Orn][Aze][dCha][Bta]F-NH2)
6.70 to 7.30 | CC(=O)N[C@@H](Cc1ccc(F)cc1)C(=O)N[C@@H](CCCN)C(=O)N1CCC[C@H]1C(=O)N[C@H](CCC(C)C)C(=O)N[C@@H](Cc1cccc(Cl)c1)C(=O)N[C@@H](Cc1ccc(F)cc1)C(N)=O [Compound 171, Ac-Pff-Orn-Pro-hle-Mcf-Pff-NH2] (Ac-[Phe(4-F)][Orn]P[d(hLeu)][Phe(3-Cl)][Phe(4-F)]-NH2)
6.70 to 7.30 | CC(=O)N[C@@H](Cc1ccccc1)C(=O)N[C@H]1CSSC[C@@H](C(N)=O)NC(=O)[C@H](Cc2ccccc2)NC(=O)[C@H](Cc2csc3ccccc23)NC(=O)[C@@H](CC2CCCCC2)NC(=O)[C@@H]2CCCN2C1=O [Compound 172, Ac-Phe-[Cys-Pro-cha-Bta-Phe-Cys]-NH2] (Ac-FCP[dCha][Bta]FC-NH2; disulfide 2-7)
6.70 to 7.30 | CCCC[C@@H]1NC(=O)[C@H](Cc2c[nH]c3ccccc23)NC(=O)[C@@H](CC2CCCCC2)NC(=O)[C@H](CC(N)=O)NC(=O)[C@@H](NC(=O)[C@H](Cc2ccccc2)NC(C)=O)CCCNC1=O [Compound 173, Ac-Phe-[Orn-Asn-cha-Trp-Nle]] (Ac-F[Orn]N[dCha]W[Nle]; lactam 2-C)

Structure (SMILES) | pIC50
CC(=O)N[C@@H](Cc1cccc(F)c1)C(=O)N[C@@H](CCCN)C(=O)N1CCC[C@H]1C(=O)N[C@H](CC1CCCCC1)C(=O)N[C@@H](Cc1csc2ccccc12)C(=O)N[C@@H](Cc1ccccc1)C(N)=O [Compound 161, Ac-Mff-Orn-Pro-cha-Bta-Phe-NH2] (Ac-[Phe(3-F)][Orn]P[dCha][Bta]F-NH2) | 6.70 to 7.30
CC(=O)N[C@@H](Cc1cccc(F)c1)C(=O)N[C@@H](CCCN)C(=O)N1CCC[C@H]1C(=O)N[C@H](CCC(C)C)C(=O)N[C@@H](Cc1csc2ccccc12)C(=O)N[C@@H](Cc1ccccc1)C(N)=O [Compound 162, Ac-Mff-Orn-Pro-hle-Bta-Phe-NH2] (Ac-[Phe(3-F)][Orn]P[d(hLeu)][Bta]F-NH2) | 6.70 to 7.30
CC(=O)N(C)[C@@H](Cc1ccccc1)C(=O)N[C@@H](CCCN)C(=O)N1CCC[C@H]1C(=O)N[C@H](CC1CCCCC1)C(=O)N[C@@H](Cc1csc2ccccc12)C(=O)N[C@@H](Cc1ccccc1)C(N)=O [Compound 165, Ac-NMF-Orn-Pro-cha-Bta-Phe-NH2] (Ac-[NMeF][Orn]P[dCha][Bta]F-NH2) | 6.70 to 7.30
CC(=O)N[C@@H](Cc1ccccc1F)C(=O)N[C@@H](CCCN)C(=O)N1CCC[C@H]1C(=O)N[C@H](CC1CCCCC1)C(=O)N[C@@H](Cc1csc2ccccc12)C(=O)N[C@@H](Cc1ccccc1)C(N)=O [Compound 166, Ac-Off-Orn-Pro-cha-Bta-Phe-NH2] (Ac-[Phe(2-F)][Orn]P[dCha][Bta]F-NH2) | 7.30 to 7.70
CC(=O)N[C@@H](Cc1ccccc1F)C(=O)N[C@@H](CCCN)C(=O)N1CCC[C@H]1C(=O)N[C@H](CCC(C)C)C(=O)N[C@@H](Cc1csc2ccccc12)C(=O)N[C@@H](Cc1ccccc1)C(N)=O [Compound 167, Ac-Off-Orn-Pro-hle-Bta-Phe-NH2] (Ac-[Phe(2-F)][Orn]P[d(hLeu)][Bta]F-NH2) | 7.30 to 7.70
CC(=O)N[C@@H](Cc1ccc(F)cc1)C(=O)N[C@@H](CCCN)C(=O)N1CCC[C@H]1C(=O)N[C@H](CC1CCCCC1)C(=O)N[C@@H](Cc1csc2ccccc12)C(=O)N[C@@H](Cc1ccccc1)C(N)=O [Compound 169, Ac-Pff-Orn-Pro-cha-Bta-Phe-NH2] (Ac-[Phe(4-F)][Orn]P[dCha][Bta]F-NH2) | 7.30 to 7.70
CC(=O)N[C@@H](Cc1ccc(F)cc1)C(=O)N[C@@H](CCCN)C(=O)N1CCC[C@H]1C(=O)N[C@H](CCC(C)C)C(=O)N[C@@H](Cc1csc2ccccc12)C(=O)N[C@@H](Cc1ccccc1)C(N)=O [Compound 170, Ac-Pff-Orn-Pro-hle-Bta-Phe-NH2] (Ac-[Phe(4-F)][Orn]P[d(hLeu)][Bta]F-NH2) | 6.70 to 7.30
CCCC[C@@H]1NC(=O)[C@H](Cc2c[nH]c3ccccc23)NC(=O)[C@@H](CC2CCCCC2)NC(=O)[C@@H]2CCN2C(=O)[C@@H](NC(=O)[C@H](Cc2ccccc2)NC(C)=O)CCCNC1=O [Compound 174, Ac-Phe-[Orn-Aze-cha-Trp-Nle]] (Ac-F[Orn][Aze][dCha]W[Nle]; lactam 2-C) | 6.70 to 7.30
CCCC[C@@H]1NC(=O)[C@H](Cc2c[nH]c3ccccc23)NC(=O)[C@@H](CC2CCCCC2)NC(=O)[C@@H]2C[C@H](O)CN2C(=O)[C@@H](NC(=O)[C@H](Cc2ccccc2)NC(C)=O)CCCNC1=O [Compound 175, Ac-Phe-[Orn-Chy-cha-Trp-Nle]] (Ac-F[Orn][cisHyp][dCha]W[Nle]; lactam 2-C) | 6.70 to 7.30
